Test results taken from ChEMBL document CHEMBL5543137, “Design and Synthesis of Novel Ultralong-Acting Peptides as EDP-EBP Interaction Inhibitors for Pulmonary Fibrosis Treatment” (J Med Chem, 2024).
The source made the active and inactive calls. The rule behind the calls is not given here. Starred links: 1 amine or outer side, 2 acyl side, 3 side chain; linkers in the order of their positions; H or OH if unused. Non-standard residues stand in square brackets, D forms with d. Residues, ends and D or L forms follow the SMILES beside them. *: point of attachment. C20 diacid = O=C(O)CCCCCCCCCCCCCCCCCCC(=O)*; γGlu = O=C(O)[C@H](CCC(=O)[*:2])N[*:1]; Iva = CC[C@](C)(N)C(=O)O; PEG2 = NCCOCCOCCC(=O)O

Key:
A549 [1] = assay: Antifibrotic activity against BLM-induced human A549 cells cocultured with RAW264.7 cells assessed as reduction in Vimentin expression at 10 uM after 24 hrs by Western blotting analysis; type: functional, cell-based
Mus musculus [2] = assay: Antifibrotic activity against BLM-induced C57BL/6 mouse pulmonary fibrosis model assessed as downregulation of Timp1 gene expression in lung tissue at 150 ug/kg, sc administered for 2 weeks starting from 7 days post BLM induction and measured after 21 days post BLM induction by RT-qPCR assay; type: functional, organism-based; conditions: dose 150.0 µg/kg
A549 [3] = assay: Antifibrotic activity against TNFalpha-induced human A549 cells assessed as downregulation of vimentin expression level at 10 uM incubated for 24 hrs by Western blotting analysis; type: functional, cell-based
TC-1 [4] = assay: Antifibrotic activity against BLM-induced mouse TC-1 cells assessed as reduction in MMP-12 expression at 10 uM after 24 hrs by Western blotting analysis; type: functional, cell-based
Mus musculus [5] = assay: Antifibrotic activity against BLM-induced C57BL/6 mouse pulmonary fibrosis model assessed as reduction in Fstl1 gene expression at 240 ug/kg/day, sc administered for 2 weeks starting from 7 days post BLM induction and measured after 21 days post BLM induction by ScRNA-sequencing analysis; type: functional, organism-based; conditions: dose 240.0 µg/kg/day
Mus musculus [6] = assay: Antifibrotic activity against BLM-induced C57BL/6 mouse pulmonary fibrosis model assessed as reduction in MMP-12 expression at 240 ug/kg/day, sc administered for 2 weeks starting from 7 days post BLM induction and measured after 21 days post BLM induction in presence of GM6001; type: functional, organism-based; conditions: dose 240.0 µg/kg/day
Mus musculus [7] = assay: Antifibrotic activity against BLM-induced C57BL/6 mouse pulmonary fibrosis model assessed as reduction in mortality at 150 ug/kg, sc administered for 2 weeks starting from 7 days post BLM induction and measured after 21 days post BLM induction; type: functional, organism-based; conditions: dose 150.0 µg/kg
Mus musculus [8] = assay: Antifibrotic activity against BLM-induced C57BL/6 mouse pulmonary fibrosis model assessed as reduction in FN expression at 240 ug/kg/day, sc administered for 2 weeks starting from 7 days post BLM induction and measured after 21 days post BLM induction in presence of Clo-Lip; type: functional, organism-based; conditions: dose 240.0 µg/kg/day
Mus musculus [9] = assay: Antifibrotic activity against BLM-induced C57BL/6 mouse pulmonary fibrosis model assessed as reduction in lung hydroxyproline content at 150 ug/kg, sc administered for 2 weeks starting from 7 days post BLM induction and measured after 21 days post BLM induction; type: functional, organism-based; conditions: dose 150.0 µg/kg
A549 [10] = assay: Inhibition of EBP signaling pathway in TGFalpha induced human A549 cells assessed as reduction in ERK phosphorylation at 10 uM incubated for 24 hrs by Western blotting analysis; type: cell-based
RAW264.7 = assay: Effect on cell proliferation in mouse RAW264.7 cells at 10 uM after 24 hrs by flow cytometry analysis; type: functional, cell-based
A549 [11] = assay: Antifibrotic activity against TNFalpha-induced human A549 cells assessed as downregulation of vimentin gene expression level at 10 uM incubated for 24 hrs by RT-qPCR analysis; type: functional, cell-based
A549 [12] = assay: Antifibrotic activity against BLM-induced human A549 cells assessed as reduction in MMP-12 expression at 10 uM after 24 hrs by Western blotting analysis; type: functional, cell-based
Mus musculus [13] = assay: Antifibrotic activity against BLM-induced C57BL/6 mouse pulmonary fibrosis model assessed as reduction in vimentin gene expression at 240 ug/kg/day, sc administered for 2 weeks starting from 7 days post BLM induction and measured after 21 days post BLM induction by ScRNA-sequencing analysis; type: functional, organism-based; conditions: dose 240.0 µg/kg/day
A549 [14] = assay: Antifibrotic activity against TNFalpha-induced human A549 cells assessed as downregulation of Fn expression level at 10 uM incubated for 24 hrs by Western blotting analysis; type: functional, cell-based
Mus musculus [15] = assay: Antifibrotic activity against BLM-induced C57BL/6 mouse pulmonary fibrosis model assessed as reduction in Tpm2 gene expression at 240 ug/kg/day, sc administered for 2 weeks starting from 7 days post BLM induction and measured after 21 days post BLM induction by ScRNA-sequencing analysis; type: functional, organism-based; conditions: dose 240.0 µg/kg/day
Mus musculus [16] = assay: Antifibrotic activity against BLM-induced C57BL/6 mouse pulmonary fibrosis model assessed as reduction in Thbs gene expression at 240 ug/kg/day, sc administered for 2 weeks starting from 7 days post BLM induction and measured after 21 days post BLM induction by ScRNA-sequencing analysis; type: functional, organism-based; conditions: dose 240.0 µg/kg/day
Mus musculus [17] = assay: Antifibrotic activity against BLM-induced C57BL/6 mouse pulmonary fibrosis model assessed as increase in MMP-12 expression at 240 ug/kg/day, sc administered for 2 weeks starting from 7 days post BLM induction and measured after 21 days post BLM induction; type: functional, organism-based; conditions: dose 240.0 µg/kg/day
Mus musculus [18] = assay: Antifibrotic activity against BLM-induced C57BL/6 mouse pulmonary fibrosis model assessed as increase in ECM degradation at 240 ug/kg/day, sc administered for 2 weeks starting from 7 days post BLM induction and measured after 21 days post BLM induction by gene enrichment analysis; type: functional, organism-based; conditions: dose 240.0 µg/kg/day
A549 [19] = assay: Antifibrotic activity against BLM-induced human A549 cells assessed as reduction in FN expression at 10 uM after 24 hrs by Western blotting analysis; type: functional, cell-based
A549 [20] = assay: Downregulation of EDP level in TNFalpha induced human A549 cells at 1 to 10 uM; type: functional, cell-based; conditions: dose 1-10 µM
TC-1 [21] = assay: Inhibition of EBP signaling pathway in TGFalpha induced mouse TC-1 cells assessed as reduction in AKT phosphorylation at 10 uM incubated for 24 hrs by Western blotting analysis; type: cell-based
Mus musculus [22] = assay: Antifibrotic activity against BLM-induced C57BL/6 mouse pulmonary fibrosis model assessed as increase in serum MMP-12 level at 30 to 240 ug/kg/day, sc administered for 2 weeks starting from 7 days post BLM induction and measured after 21 days post BLM induction; type: functional, organism-based; conditions: dose 30-240 µg/kg/day
Mus musculus [23] = assay: Antifibrotic activity against BLM-induced C57BL/6 mouse pulmonary fibrosis model assessed as reduction in Des gene expression at 240 ug/kg/day, sc administered for 2 weeks starting from 7 days post BLM induction and measured after 21 days post BLM induction by ScRNA-sequencing analysis; type: functional, organism-based; conditions: dose 240.0 µg/kg/day
Mus musculus [24] = assay: Antifibrotic activity against BLM-induced C57BL/6 mouse pulmonary fibrosis model assessed as reduction in ECM deposition in lungs at 30 to 240 ug/kg, sc administered for 2 weeks starting from 7 days post BLM induction and measured after 21 days post BLM induction; type: functional, organism-based; conditions: dose 30-240 µg/kg
[25] = Stability in rat serum measured upto 48 hrs by LC-MS/MS method; type: ADME, cell-free
TC-1 [26] = assay: Inhibition of EBP signaling pathway in TGFalpha induced mouse TC-1 cells assessed as reduction in ERK phosphorylation at 10 uM incubated for 24 hrs by Western blotting analysis; type: cell-based
Mus musculus [27] = assay: Antifibrotic activity against BLM-induced C57BL/6 mouse pulmonary fibrosis model assessed as reduction in Fn gene expression at 240 ug/kg/day, sc administered for 2 weeks starting from 7 days post BLM induction and measured after 21 days post BLM induction by ScRNA-sequencing analysis; type: functional, organism-based; conditions: dose 240.0 µg/kg/day
Mus musculus [28] = assay: Antifibrotic activity against BLM-induced C57BL/6 mouse pulmonary fibrosis model assessed as reversal of fibroblast activating effect at 240 ug/kg/day, sc administered for 2 weeks starting from 7 days post BLM induction and measured after 21 days post BLM induction; type: functional, organism-based; conditions: dose 240.0 µg/kg/day
Mus musculus [29] = assay: Antifibrotic activity against BLM-induced sc dosed C57BL/6 mouse pulmonary fibrosis model assessed as reversal of body weight indices administered for 2 weeks starting from 7 days post BLM induction and measured after 21 days post BLM induction; type: functional, organism-based; conditions: dose 30-240 µg/kg

In the case of `CC[C@](C)(NC(=O)[C@@H](NC(=O)CCOCCOCCNC(=O)CCOCCOCCNC(=O)CC[C@H](NC(=O)CCCCCCCCCCCCCCCCCCC(=O)O)C(=O)O)C(C)C)C(=O)NCC(=O)N[C@@H](CO)C(=O)N1CCC[C@H]1C(=O)N[C@@H](CO)C(=O)N[C@@H](C)C(=O)N[C@@H](CCC(N)=O)C(=O)N[C@@H](CCC(=O)O)C(=O)N[C@@H](CCC(=O)O)C(=O)N[C@@H](C)C(=O)N[C@@H](CO)C(=O)N1CCC[C@H]1C(=O)N[C@@H](C)C(N)=O` ({C20 diacid-γGlu-PEG2-PEG2}-V[Iva]GSPSAQEEASPA-NH2), the Activity (A549 [1]) is reported as “Active”, the Activity (Mus musculus [2]) is reported as “Active” and the Activity (A549 [3]) is reported as “Active”. For the same compound, the Activity (TC-1 [4]) was “inactive”, the Activity (Mus musculus [5]) was “Active” and the Activity (Mus musculus [6]) was “inactive”. For the same compound, the Activity (Mus musculus [7]) was “Active”, the Activity (Mus musculus [8]) was “inactive” and the Activity (Mus musculus [9]) was “Active”. For the same compound, the inhibition (A549 [10]) was “Active”, the Activity (RAW264.7) was “inactive” and the Activity (A549 [11]) was “Active”. For the same compound, the Activity (A549 [12]) was “inactive”, the Activity (Mus musculus [13]) was “Active” and the Activity (A549 [14]) was “Active”. For the same compound, the Activity (Mus musculus [15]) was “Active”, the Activity (Mus musculus [16]) was “Active” and the Activity (Mus musculus [17]) was “Active”. For the same compound, the Activity (Mus musculus [18]) was “Active”, the Activity (A549 [19]) was “Active” and the Activity (A549 [20]) was “Dose-Dependent Effect”. For the same compound, the inhibition (TC-1 [21]) was “Active”, the Activity (Mus musculus [22]) was “Active” and the Activity (Mus musculus [23]) was “Active”. The Activity (Mus musculus [24]) was “Active”, the Stability [25] was “Stable” and the inhibition (TC-1 [26]) was “Active”. For the same compound, the Activity (Mus musculus [27]) was “Active”, the Activity (Mus musculus [28]) was “Active” and the Activity (Mus musculus [29]) was “Dose-Dependent Effect”.
